# Measurements as given in patent US20130253020A1, “Treatment of Degenerative Disc Diseases” (priority 2012, published 2013).
# What was measured:
# [1] = tested on: advanced glycation end-products (AGEs) in nucleus pulposus (NP) tissues; experiment: AGEs in NP disc tissue: autofluorescence of acid hydrolysates divided by collagen content, after thiazolium salt incubation; design: species or system human; settings: 4 days
# Procedure: Eleven lumbar spines (T12/L1-L5/S1) were collected fresh frozen cadavers consisting of 5 males and 6 females with a mean age of 82.5 years ±10.2. The cross-sections of the lumbar disc were visually categorized into Thompson grades 1 to 5 and corroborated with fluoroscopic imaging. The grade 1 (“Control”) and grade 5 (“Degenerate”) discs were used (total 27 discs). The discs were separated into annulus fibrosus (AF) and nucleus pulposus (NP) tissues. The Control discs were tested mechanically and then divided to undergo 0, 2, 4, 8, and 10 days of ribosylation in 0.6M ribose at 37° C. The treated Control discs, along with the degenerated discs were then tested mechanically using a dynamic microindentation device in 0.15M PBS at 20° C. using the Biopent 1000 reference point indentation system (Active Life Scientific, CA). A 1.47 mm diameter cylindrical probe cyclically indented the tissue to a depth of 300 μm at 1 Hz to generate a force displacement curve. Three distinct sites per AF/NP were measured and averaged between the sites. The resulting force-deformation curves, accounting for the probe geometry, were used to compute elastic modulus and tan δ.
# Following mechanical measurements, the O-day and 4-day treated Control NP tissues were incubated in 0.15M of a thiazolium salt known to cleave AGEs products (Oturai P S, Christensen M, Rolin B, Pedersen K E, Mortensen S B, Boel E. Effects of advanced glycation end-product inhibition and cross-link breakage in diabetic rats. Metab Clin Exp 2000:49:996-1000.) for 4 days. […] Following the second incubation, all tissues were mechanically assessed again, and then subjected to acid hydrolysis by 6N hydrochloric acid (16 hours, 110C). The collagen crosslinking by AGEs, a sugar-derived posttranslational modification of amino acids, was quantified by measuring the autofluorescence of the acid hydrolysates at […] and divided by collagen content (Monnier V M, Kohn R R, Cerami A. Accelerated age-related browning of human collagen in diabetes mellitus. Proc Natl Acad Sci USA 1984; 81:583-587). […]
# [2] = tested on: nucleus pulposus (NP) tissues; experiment: Dynamic microindentation of NP tissue (indentation modulus, tan δ) after thiazolium salt incubation; design: species or system human; settings: ribosylated or degenerated, thiazolium salt solution 4 days, FIG. 2
# Procedure: Eleven lumbar spines (T12/L1-L5/S1) were collected fresh frozen cadavers consisting of 5 males and 6 females with a mean age of 82.5 years ±10.2. The cross-sections of the lumbar disc were visually categorized into Thompson grades 1 to 5 and corroborated with fluoroscopic imaging. The grade 1 (“Control”) and grade 5 (“Degenerate”) discs were used (total 27 discs). The discs were separated into annulus fibrosus (AF) and nucleus pulposus (NP) tissues. The Control discs were tested mechanically and then divided to undergo 0, 2, 4, 8, and 10 days of ribosylation in 0.6M ribose at 37° C. […] Three distinct sites per AF/NP were measured and averaged between the sites. […]
# Following mechanical measurements, the O-day and 4-day treated Control NP tissues were incubated in 0.15M of a thiazolium salt known to cleave AGEs products (Oturai P S, Christensen M, Rolin B, Pedersen K E, Mortensen S B, Boel E. Effects of advanced glycation end-product inhibition and cross-link breakage in diabetic rats. Metab Clin Exp 2000:49:996-1000.) for 4 days. […] Following the second incubation, all tissues were mechanically assessed again, and then subjected to acid hydrolysis by 6N hydrochloric acid (16 hours, 110C). […]
# primary spine disc cells = experiment: mRNA expression of inflammatory cytokines and r-AGEs in primary spine disc cells exposed to AGEs; format: cell-based, human and bovine; settings: FIG. 3
# From the text: Primary spine disc cells were isolated from both human and bovine spine discs. The tissues were digested using a cocktail containing collagenase P, trypsin, and other enzymes to release the primary cells embedded within the tissues (Neidlinger-Wilke C, Liedert A, Wuertz K, Buser Z, Rinkler C, Käfer W, et al. Mechanical stimulation alters pleiotrophin and aggrecan expression by human intervertebral disc cells and influences their capacity to stimulate endothelial migration. Spine 2009; 34:663-669). These cells were then conditioned and allowed to expand for 3 passages. After conditioning in normal cell culture media, the cells were exposed to several conditions: Control, bovine serum albumin, and AGEs. The treatments were dissolved directly in the cell culture media and then the cells were subjected to these conditions for 24 hours. Messenger ribose nucleic acids (mRNA) were then extracted from these cells and amplified into respective complimentary deoxyribose nucleic acids (cDNA). The cDNA sequences were tested for the normalized expression (normalized to the housekeeping gene, GAP-DH) of Interleukin (IL)-4, IL-6 (both of which initiate the inflammatory pain response), and the Receptor-for Advanced Glycation End-products (r-AGEs). The normalized expressions compared to the controls were computed by the delta-delta CT method.
compound,measurement,setting,value
"O=C(C[n+]1ccsc1)c1ccccc1.[Br-] [PTB, N-phenacyl thiazolium bromide]",AGEs in NP disc tissue,"[1]; Grade 1 (Control) NP tissue, 0.15M PTB solution",significant reductions
same,AGEs in NP disc tissue,"[1]; Grade 5 (Degenerate) NP tissue, 0.15M PTB solution",significant reductions
same,AGEs in NP disc tissue,"[1]; Grade I+Ribosylation NP tissue (4-day ribosylation), 0.15M thiazolium salt",significant reductions
same,"mechanical properties of NP tissue (indentation modulus, tan δ)",[2],rescuing effect
same,"cellular inflammatory response, marked by the cytokines IL-4 and IL-6","primary spine disc cells; concurrent administration with AGEs in cell culture media, 24 hours",suppresses this response
same,Interleukin-1 expression,primary spine disc cells; primary spinal disc cells,decrease
same,Interleukin-6 expression,primary spine disc cells; primary spinal disc cells,decrease
same,expression of the Receptor-for-Advanced Glycation End-Products,primary spine disc cells; primary spinal disc cells,reduction
